The test deals with T1, homogentisate solanesyltransferase (CrHST) (Chlamydomonas reinhardtii, UniProt A1JHN0).
T1 construct: gene HST; N-terminal GST tag (pDEST15), expressed in E. coli BL21 AI
Put plainly: biochemical.

The structures appear in SMILES notation.

As a reminder, the IC50 is the point on the concentration scale where inhibition reaches its midpoint. Lower therefore signals greater potency in that assay.

T1 sequence (A1JHN0 51-370): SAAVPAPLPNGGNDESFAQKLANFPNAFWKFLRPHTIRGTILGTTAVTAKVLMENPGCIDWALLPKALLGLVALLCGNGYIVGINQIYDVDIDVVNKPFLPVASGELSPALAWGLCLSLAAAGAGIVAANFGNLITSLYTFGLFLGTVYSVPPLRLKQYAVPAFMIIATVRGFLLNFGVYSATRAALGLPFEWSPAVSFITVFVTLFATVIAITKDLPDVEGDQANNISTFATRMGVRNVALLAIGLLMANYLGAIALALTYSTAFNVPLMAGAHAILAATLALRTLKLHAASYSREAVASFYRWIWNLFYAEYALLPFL

On to `Cc1cccc(C2CC2)c1Oc1nnc(Cl)cc1O` [DMC, Des-Morpholinocarbony Cyclopyrimorate], for which the concentration for half-maximal inhibition (IC50) worked out at 3.63 ± 0.53 µM.

(Values after PMC10920428 (Applied Microbiology and Biotechnology, 2024).)
